Biological target: human TYK2 (JH2domain-pseudokinase) (Homo sapiens (Human), UniProt P29597)
Assay: TYK2 JH2 Domain Binding Assay (KINOMEscan, DiscoveRx)
Conditions: 11-point dilution, duplicate
Summary of the method: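 TYK2 JH2 (G556–D888)–NFkB DBD fusion, DNA-tagged, from HEK293 extracts (<0.1 nM) competed against immobilised biotinylated ligand for 1 h at room temperature, 0.9% DMSO. Bead-retained kinase quantified by qPCR; Kd from 11-point 3-fold series (top 30,000 nM, duplicate), Hill fit with slope −1.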

Sequence of human TYK2 (JH2domain-pseudokinase) (P29597 556-888): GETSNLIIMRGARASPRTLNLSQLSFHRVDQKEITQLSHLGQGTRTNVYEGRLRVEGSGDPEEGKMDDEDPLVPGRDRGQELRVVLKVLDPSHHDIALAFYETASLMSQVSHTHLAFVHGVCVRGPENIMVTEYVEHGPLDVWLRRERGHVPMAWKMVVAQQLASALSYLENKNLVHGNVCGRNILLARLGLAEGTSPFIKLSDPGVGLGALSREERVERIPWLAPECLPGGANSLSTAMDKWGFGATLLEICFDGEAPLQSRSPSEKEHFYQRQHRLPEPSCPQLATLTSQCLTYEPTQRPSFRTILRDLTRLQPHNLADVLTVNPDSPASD

For `Cc1nc(-c2ccc(Nc3cc(Nc4cnc(C)c(C)n4)nc4[nH]c(C)nc34)c(N(C)S(C)(=O)=O)c2)n(C)n1` [I-173, N-(5-(1,3-dimethyl-1H-1,2,4-triazol-5-yl)-2-((5-((5,6-dimethylpyrazin-2-yl)amino)-2-methyl-3H-imidazo[4,5-b]pyridin-7-yl)amino)phenyl)-N-methylmethanesulfonamide], which Kd is on record?
The Kd was over 10 nM.

`Cc1nc2c(Nc3ccc(-c4ccn(C)n4)cc3N(C)S(C)(=O)=O)cc(NC(=O)C3CC3)nc2[nH]1` [I-174, N-(2-methyl-7-((4-(1-methyl-1H-pyrazol-3-yl)-2-(N-methyl-methysulfonamido)phenyl)amino)-3H-imidazo[4,5-b]pyridin-5-yl)cyclopropanecarboxamide] was tested. Which Kd did it give?
The Kd was 0.1 to 0.5 nM.

`Cc1cn(C)c(-c2ccc(Nc3cc(NC(=O)C4CC4)nc4[nH]c(C(F)F)nc34)c(N(C)S(C)(=O)=O)c2)n1` [I-175, N-(2-(difluoromethyl)-7-((4-(1,4-dimethyl-1H-imidazol-2-yl)-2-(N-methylmethylsulfonamido)phenyl)amino)-3H-imidazo[4,5-b]pyridin-5-yl)cyclopropane-Carboxamide] was tested. Which Kd did it give?
The Kd was 0.5 to 1 nM.

`Cc1cn(C)c(-c2ccc(Nc3cc(NC(=O)C4CC4)nc4[nH]c(C)nc34)c(N(C)S(C)(=O)=O)c2)n1` [I-176, N-(7-((4-(1,4-dimethyl-1H-imidazol-2-yl)-2-(N-methylmethyl-sulfonamido)phenyl)amino)-2-methyl-3H-imidazo[4,5-b]pyridin-5-yl)cyclopropane-carboxamide] was tested. Which Kd did it give?
The Kd was 0.5 to 1 nM.

For `Cc1nc2c(Nc3ccccc3S(C)(=O)=O)cc(NC(=O)C3CC3)nc2[nH]1` [I-177, N-(2-methyl-7-((2-(methylsulfonyl)phenyl)amino)-3H-imidazo[4,5-b]pyridin-5-yl)cyclopropanecarboxamide], which Kd is on record?
The Kd was 0.1 to 0.5 nM.

Which Kd does the source give for `CN(c1cc(C(F)F)ccc1Nc1cc(Nc2cccc(C#N)n2)nc2[nH]c(C(F)F)nc12)S(C)(=O)=O` [I-178, N-(2-((5-((6-cyanopyridin-2-yl)amino)-2-(difluoromethyl)-3H-imidazo[4,5-b]pyridin-7-yl)amino)-5-(difluoromethyl)phenyl)-N-methylmethanesulfonamide] here?
The Kd was 0.1 to 0.5 nM.

`CN(c1ccccc1Nc1cc(Nc2cccc(C#N)n2)nc2[nH]c(C(F)F)nc12)S(=O)(=O)C1CC1` [I-179] was tested. Which Kd did it give?
Its Kd is 0.1 to 0.5 nM.

For `Cc1nc2c(Nc3ccccc3N(C)S(=O)(=O)C3CC3)cc(Nc3cccc(C#N)n3)nc2[nH]1` [I-180, N-(2-((5-((6-cyanopyridin-2-yl)amino)-2-methyl-3H-imidazo[4,5-b]pyridin-7-yl)amino)phenyl)-N-methylcyclopropanesulfonamide], which Kd is on record?
Its Kd is 0.1 to 0.5 nM.

How did the Kd turn out when `CCS(=O)(=O)N(C)c1ccccc1Nc1cc(Nc2cccc(C#N)n2)nc2[nH]c(C)nc12` [I-181, N-(2-((5-((6-cyanopyridin-2-yl)amino)-2-methyl-3H-imidazo[4,5-b]pyridin-7-yl)amino)phenyl)-N-methylethanesulfonamide] was run?
The Kd was 0.1 to 0.5 nM.

For `CN(c1cc(C2CCOCC2)ccc1Nc1cc(NC(=O)C2CC2)nc2[nH]c(C(F)F)nc12)S(C)(=O)=O` [I-182, N-(2-(difluoromethyl)-7-((2-(N-methylmethylsulfonamido)-4-(tetrahydro-2H-pyran-4-yl)phenyl)amino)-3H-imidazo[4,5-b]pyridin-5-yl)cyclopropanecarboxamide], which Kd is on record?
The Kd was 0.1 to 0.5 nM.

Which Kd does the source give for `CN(c1cc(C2CC2)ccc1Nc1cc(NC(=O)C2CC2)nc2[nH]c(C(F)F)nc12)S(C)(=O)=O` [I-183, N-(7-((4-cyclopropyl-2-(N-methylmethylsulfonamido)phenyl)amino)-2-(difluoromethyl)-3H-imidazo[4,5-b]pyridin-5-yl)cyclopropanecarboxamide] here?
Its Kd is 0.1 to 0.5 nM.

With `Cc1nc2c(Nc3ccc(C4CC4)cc3N(C)S(C)(=O)=O)cc(NC(=O)C3CC3)nc2[nH]1` [I-184, N-(7-((4-cyclopropyl-2-(N-methylmethylsulfonamido)phenyl)amino)-2-methyl-3H-imidazo[4,5-b]pyridin-5-yl)cyclopropanecarboxamidee] as the molecule, how does the Kd read?
The Kd was 0.1 to 0.5 nM.

How did the Kd turn out when `Cc1ccc(Nc2cc(Nc3ccc(Cl)cc3S(C)(=O)=O)c3nc(C(F)F)[nH]c3n2)nn1` [I-185, N7-(4-chloro-2-(methylsulfonyl)phenyl)-2-(difluoromethyl)-N5-(6-methylpyridazin-3-yl)-3H-imidazo[4,5-b]pyridine-5,7-diamine] was run?
The Kd was 0.1 to 0.5 nM.

For `Cc1nc2c(Nc3ccc(Cl)cc3S(C)(=O)=O)cc(Nc3cccc(C#N)n3)nc2[nH]1` [I-186, 6-((7-((4-chloro-2-(methylsulfonyl)phenyl)amino)-2-methyl-3H-imidazo[4,5-b]pyridin-5-yl)amino)picolinonitrile], which Kd is on record?
The Kd was 0.1 to 0.5 nM.

Which Kd does the source give for `Cc1cc(-c2ccc(Nc3cc(NC(=O)C4CC4)nc4[nH]c(C(F)F)nc34)c(N(C)S(C)(=O)=O)c2)nn1C` [I-187, N-(2-(difluoromethyl)-7-((4-(1,5-dimethyl-1H-pyrazol-3-yl)-2-(N-methylmethylsulfonamido)phenyl)amino)-3H-imidazo[4,5-b]pyridin-5-yl)cyclopropanecarboxamide] here?
The Kd was 0.1 to 0.5 nM.

For `Cc1nc2c(Nc3ccc(C4CC4)cc3S(C)(=O)=O)cc(NC(=O)C3CC3)nc2[nH]1` [I-188], which Kd is on record?
The Kd was 0.1 to 0.5 nM.

`Cc1ccc(Nc2cc(Nc3ccc(Cl)cc3S(C)(=O)=O)c3nc(C)[nH]c3n2)nn1` [I-189, N7-(4-chloro-2-(methylsulfonyl)phenyl)-2-methyl-N5-(6-methylpyridazin-3-yl)-3H-imidazo[4,5-b]pyridine-5,7-diamine] was tested. Which Kd did it give?
Its Kd is 0.1 to 0.5 nM.

How did the Kd turn out when `CCS(=O)(=O)N(C)c1ccccc1Nc1cc(Nc2cccc(C#N)n2)nc2[nH]c(C(F)F)nc12` [I-190, N-(2-((5-((6-cyanopyridin-2-yl)amino)-2-(difluoromethyl)-3H-imidazo[4,5-b]pyridin-7-yl)amino)phenyl)-N-methylethanesulfonamide] was run?
The Kd was over 10 nM.

For `CS(=O)(=O)c1cc(Cl)ccc1Nc1cc(Nc2cccc(C#N)n2)nc2[nH]c(C(F)F)nc12` [I-191, 6-((7-((4-chloro-2-(methylsulfonyl)phenyl)amino)-2-(difluoromethyl)-3H-imidazo[4,5-b]pyridin-5-yl)amino)picolinonitrile], which Kd is on record?
Its Kd is 0.5 to 1 nM.

`Cc1nc2c(Nc3ccc(Cl)cc3S(C)(=O)=O)cc(NC(=O)[C@H]3C[C@H]3F)nc2[nH]1` [I-192, (1R,2R)—N-(7-((4-chloro-2-(methylsulfonyl)phenyl)amino)-2-methyl-3H-imidazo[4,5-b]pyridin-5-yl)-2-fluorocyclopropane-1-carboxamide] was tested. Which Kd did it give?
The Kd was 1 to 10 nM.

`Cc1nc2c(Nc3ccc(-c4cc(C)n(C)n4)cc3N(C)S(C)(=O)=O)cc(NC(=O)C3CC3)nc2[nH]1` [I-193, N-(7-((4-(1,5-dimethyl-1H-pyrazol-3-yl)-2-(N-methylmethylsulfonamido)phenyl)amino)-2-methyl-3H-imidazo[4,5-b]pyridin-5-yl)cyclopropanecarboxamide] was tested. Which Kd did it give?
The Kd was over 10 nM.

How did the Kd turn out when `Cc1nc2c(Nc3ccc(-c4cn(C)nc4C)cc3N(C)S(C)(=O)=O)cc(NC(=O)C3CC3)nc2[nH]1` [I-194, N-(7-((4-(1,3-dimethyl-1H-pyrazol-4-yl)-2-(N-methylmethylsulfonamido)phenyl)amino)-2-methyl-3H-imidazo[4,5-b]pyridin-5-yl)cyclopropanecarboxamide] was run?
Its Kd is over 10 nM.

`Cc1nc2c(Nc3ccc(C(F)F)cc3N(C)S(C)(=O)=O)cc(Nc3cccc(C#N)n3)nc2[nH]1` [I-195, N-(2-((5-((6-cyanopyridin-2-yl)amino)-2-methyl-3H-imidazo[4,5-b]pyridin-7-yl)amino)-5-(difluoromethyl)phenyl)-N-methylmethanesulfonamide] was tested. Which Kd did it give?
The Kd was 0.1 to 0.5 nM.

`Cc1nc2c(Nc3ccc(C4CCOCC4)cc3N(C)S(C)(=O)=O)cc(NC(=O)C3CC3)nc2[nH]1` [I-196, N-(2-methyl-7-((2-(N-methylmethylsulfonamido)-4-(tetrahydro-2H-pyran-4-yl)phenyl)amino)-3H-imidazo[4,5-b]pyridin-5-yl)cyclopropanecarboxamide] was tested. Which Kd did it give?
The Kd was 0.5 to 1 nM.

For `Cc1nn(C)cc1-c1ccc(Nc2cc(NC(=O)C3CC3)nc3[nH]c(C(F)F)nc23)c(N(C)S(C)(=O)=O)c1` [I-197, N-(2-(difluoromethyl)-7-((4-(1,3-dimethyl-1H-pyrazol-4-yl)-2-(N-methylmethylsulfonamido)phenyl)amino)-3H-imidazo[4,5-b]pyridin-5-yl)cyclopropanecarboxamide], which Kd is on record?
The Kd was 0.1 to 0.5 nM.

`Cc1c(-c2ccc(Nc3cc(NC(=O)C4CC4)nc4[nH]c(C(F)F)nc34)c(N(C)S(C)(=O)=O)c2)cnn1C` [I-198, N N-(2-(difluoromethyl)-7-((4-(1,5-dimethyl-1H-pyrazol-4-yl)-2-(N-methylmethylsulfonamido)phenyl)amino)-3H-imidazo[4,5-b]pyridin-5-yl)cyclopropanecarboxamide] was tested. Which Kd did it give?
The Kd was under 0.1 nM.

`Cc1nc2c(Nc3ccc(-c4cnn(C)c4C)cc3N(C)S(C)(=O)=O)cc(NC(=O)C3CC3)nc2[nH]1` [I-199, N-(7-((4-(1,5-dimethyl-1H-pyrazol-4-yl)-2-(N-methylmethylsulfonamido)phenyl)amino)-2-methyl-3H-imidazo[4,5-b]pyridin-5-yl)cyclopropanecarboxamide] was tested. Which Kd did it give?
Its Kd is under 0.1 nM.

`[2H]C([2H])([2H])N(c1ccccc1Nc1cc(Nc2cc(C)nc(C)n2)nc2[nH]c(C(F)F)nc12)S(C)(=O)=O` [I-200, N-(2-((2-(difluoromethyl)-5-((2,6-dimethylpyrimidin-4-yl)amino)-3H-imidazo[4,5-b]pyridin-7-yl)amino)phenyl)-N-(methyl-d3)methanesulfonamide] was tested. Which Kd did it give?
Its Kd is 0.1 to 0.5 nM.

For `[2H]C([2H])([2H])N(c1ccccc1Nc1cc(Nc2cc(C)nc(C)n2)nc2[nH]c(C)nc12)S(C)(=O)=O` [I-201, N-(2-((5-((2,6-dimethylpyrimidin-4-yl)amino)-2-methyl-3H-imidazo[4,5-b]pyridin-7-yl)amino)phenyl)-N-(methyl-d3)methanesulfonamide], which Kd is on record?
Its Kd is 0.1 to 0.5 nM.

For `CN(c1cc(C(F)F)ccc1Nc1cc(Nc2ccn(C)n2)nc2[nH]c(C(F)F)nc12)S(C)(=O)=O` [I-202, N-(5-(difluoromethyl)-2-((2-(difluoromethyl)-5-((1-methyl-1H-pyrazol-3-yl)amino)-3H-imidazo[4,5-b]pyridin-7-yl)amino)phenyl)-N-methylmethanesulfonamide], which Kd is on record?
Its Kd is 0.5 to 1 nM.

`CS(=O)(=O)c1cc(C2CC2)ccc1Nc1cc(NC(=O)C2CC2)nc2[nH]c(C(F)F)nc12` [I-203] was tested. Which Kd did it give?
The Kd was 0.1 to 0.5 nM.

From patent publication US10647713B2 (Nimbus Lakshmi, Inc., priority 2016, dated 2020)
